# Data reported in patent US11311501B2, “Mitoriboscins: mitochondrial-based therapeutics targeting cancer cells, bacteria, and pathogenic yeast” (LUNELLA BIOTECH, INC., priority 2017, dated 2022).
# Key:
# MCF7 cells [1] = assay: Seahorse XF96 metabolic flux analysis (OCR/ECAR); format: cell-based, human; settings: for rank order potency to reduce maximal respiration and ATP production: top 10 hits, FIG. 10; for effect on glycolysis: ECAR; for inhibition of mitochondrial oxygen-consumption: FIGS. 7, 8 and 9
# Source text: The present approach further involves methods of functional validation at step S105, during which a compound's function as a mitochondrial inhibitor may be confirmed. A number of methods may be used for functional validation, including, for example, metabolic flux analysis, mammosphere assays, viability assays, and antibiotic (anti-bacterial and/or anti-fungal) activity. For example, the inventors determined extracellular acidification rates (ECAR) and real-time oxygen consumption rates (OCR) for MCF7 cells using the Seahorse Extracellular Flux (XF96) analyzer (Seahorse Bioscience, MA, USA). MCF7 cells were maintained in DMEM supplemented with 10% FBS (fetal bovine serum), 2 mM GlutaMAX, and 1% Pen-Strep. 5,000 cells per well were seeded into XF96-well cell culture plates, and incubated overnight at 37° C. in a 5% CO2 humidified atmosphere. After 24 hours, cells were treated with selected compounds showing ATP-depletion without prominent cytotoxicity at various concentrations (or vehicle alone). After 72 hours of treatment, cells were washed in pre-warmed XF assay media (for OCR measurement, XF assay media was supplemented with 10 mM glucose, 1 mM Pyruvate, 2 mM L-glutamine and adjusted at pH 7.4). Cells were maintained in 175 μL/well of XF assay media at 37° C. in a non-CO2 incubator for 1 hour. During incubation, 25 μL of 80 mM glucose, 9 μM oligomycin, 1M 2-deoxyglucose (for ECAR measurement) and 25 μL of 10 μM oligomycin, 9 μM FCCP, 10 μM rotenone, 10 μM antimycin A (for OCR measurement) in XF assay media was loaded into the injection ports of the XFe-96 sensor cartridge. During the experiment, the instrument injected these inhibitors into the wells at a given time point, while ECAR/OCR was measured continuously. ECAR and OCR measurements were normalized by protein content (using the Sulphorhodamine B assay). Data sets were analyzed by XFe-96 software, using one-way ANOVA and Student's t-test calculations. All experiments were performed in triplicate, and results validated the mitochondrial inhibition effects of mitoriboscin compounds described herein. It should be appreciated that numerous methods are known for functional validation, and that persons of skill in the art may select one or more depending on the validation needs (e.g., other assays that measure or approximate mitochondrial function). The present approach involves methods of function validation of mitoriboscin compounds. For example, the inventors assessed functional validation of three candidates using the Seahorse Analyzer, which quantitatively measures oxygen consumption rate (OCR) and extracellular acidification rate (ECAR). OCR is a surrogate marker for OXPHOS and ECAR is a surrogate marker for glycolysis and L-lactate production.
# MRSA ATCC 43300 = assay: MIC by broth dilution method; format: cell-based, Methicillin-resistant Staphylococcus aureus; settings: for sensitivity of MRSA: summary of Table 4
# Description: (§1) The minimal inhibitory concentration (MIC) of the antibacterial compounds may be determined using the broth dilution method, according to CLSI guidelines. Test compound solutions (or antibiotic solutions used as positive controls) were diluted, serially, with MHB medium. Then, the suspensions of the microorganisms, prepared from overnight cultures of bacteria in the MHB medium, at a concentration of 10^6 CFU/ml, were added to each dilution in a 1:1 ratio. McFarland standards were used as a reference to adjust the turbidity of microorganism suspensions. Growth (or lack thereof) of the microorganisms was determined after incubation for 24 hours at 37° C. by turbidimetry (wavelength of 600 nm). MIC 50 and MIC 99 are defined as the minimum inhibitory concentration of the compound required for 50% and 99% inhibition of bacterial growth. […] The susceptibility test by measurement of MIC was performed in triplicate and repeated three times independently. Statistical significance was determined using the Student's t-test and values of less than 0.05 were considered significant.
# (§2) In order to determine the minimal inhibitory concentration (MIC) for 24/F9, 24/D4 and 23/G4, the broth dilution method may be performed.
# P. auriginosa ATCC 27853 = assay: MIC by broth dilution method; format: cell-based, P. aeruginosa; settings: for MIC50 / MIC99: Pseudomonas aeruginosa, ATCC27853
# Description: as §1, with “nm).” for “nm). MIC 50 and MIC 99 are defined as the minimum inhibitory concentration of the compound required for 50% and 99% inhibition of bacterial growth.”, “independently.” for “independently. Statistical significance was determined using the Student's t-test and values of less than 0.05 were considered significant.”
# [2] = system: Staph. aureus ATCC 25923 (MSSA); assay: MIC by broth dilution method; format: cell-based; settings: for MIC50 / MIC99: Staphylococcus aureus
# Description: as §1, with “nm).” for “nm). MIC 50 and MIC 99 are defined as the minimum inhibitory concentration of the compound required for 50% and 99% inhibition of bacterial growth.”, “independently.” for “independently. Statistical significance was determined using the Student's t-test and values of less than 0.05 were considered significant.”
# K. pneumoniae ATCC 13883 = assay: MIC by broth dilution method; format: cell-based; settings: for MIC50 / MIC99: Klebsiella pneumoniae, ATCC13883
# Description: as §1, with “nm).” for “nm). MIC 50 and MIC 99 are defined as the minimum inhibitory concentration of the compound required for 50% and 99% inhibition of bacterial growth.”, “independently.” for “independently. Statistical significance was determined using the Student's t-test and values of less than 0.05 were considered significant.”
# E. coli ATCC 25922 = assay: MIC by broth dilution method; format: cell-based; settings: E. coli ATCC 25922, 24 hours at 37° C.; for MIC50 / MIC99: Escherichia coli, ATCC25922
# Description: as §1, with “nm).” for “nm). MIC 50 and MIC 99 are defined as the minimum inhibitory concentration of the compound required for 50% and 99% inhibition of bacterial growth.”, “independently.” for “independently. Statistical significance was determined using the Student's t-test and values of less than 0.05 were considered significant.”
# [3] = system: Strept. pyogenes ATCC 19615; assay: MIC by broth dilution method; format: cell-based; settings: for MIC50 / MIC99: Streptococcus pyogenes, ATCC19615
# Description: as §1, with “nm).” for “nm). MIC 50 and MIC 99 are defined as the minimum inhibitory concentration of the compound required for 50% and 99% inhibition of bacterial growth.”, “independently.” for “independently. Statistical significance was determined using the Student's t-test and values of less than 0.05 were considered significant.”
# C. albicans = assay: MIC by broth dilution method; format: cell-based; settings: C. albicans ATCC 13883
# Description: as §1, §2
# MCF7 cells [4] = assay: Mammosphere formation assay; format: cell-based, human; settings: 5 μM, FIG. 5
# Source text: The present approach involves methods of testing compounds, and in particular mitoriboscins, for anti-cancer properties. As discussed above, vHTS and computational chemistry may be used to identify candidate mitochondrial inhibitors. Those candidates may be tested for specific anti-cancer properties. For examples, the inventors compared seven candidate compounds in parallel for their ability to inhibit mammosphere formation in MCF7 cells. […] For example, 23/G4 (Group 1) reduced mammosphere formation by 50% at this concentration. Similarly, 24/F9 (Group 2) and 24/D4 (Group 3), both reduced mammosphere formation by ˜90%.
# [5] = Staph. aureus ATCC 25923 (Table 3)
# [6] = Staphylococcus aureus, MRSA ATCC 43300
structure (smiles),measurement,setting,value
OC1C(NCc2ccccc2)CCCC1Oc1ccccc1Oc1cccc(F)c1 (centres unmarked) [23/E9],rank order potency to reduce maximal respiration and ATP production,MCF7 cells [1],top 6
CCCc1ccc(OCc2ccccc2)c(CN2CCC3(CC2)CC(N(C)C)C(C)(O)CO3)c1 (centres unmarked) [24/D4],MIC 50%,MRSA ATCC 43300; MRSA ATCC 43300,16 µg/mL
same,MIC 99%,MRSA ATCC 43300; MRSA ATCC 43300,>32 µg/mL
same,sensitivity of MRSA,MRSA ATCC 43300,sensitive
same,MIC 50%,P. auriginosa ATCC 27853,16 µg/mL
same,MIC 99%,P. auriginosa ATCC 27853,32 µg/mL
same,effect on glycolysis,MCF7 cells [1],suppressed glycolysis
same,inhibition of mitochondrial oxygen-consumption,MCF7 cells [1],dose-dependently inhibited
same,MIC 50%,[2]; MSSA ATCC 25923 (Table 4),16 µg/mL
same,MIC 99%,[2]; MSSA ATCC 25923 (Table 4),32 µg/mL
same,MIC 50%,[2]; [5],16 µg/mL
same,MIC 99%,[2]; [5],32 µg/mL
same,MIC 50%,K. pneumoniae ATCC 13883,16 µg/mL
same,MIC 99%,K. pneumoniae ATCC 13883,32 µg/mL
same,MIC 50%,E. coli ATCC 25922,16 µg/mL
same,MIC 99%,E. coli ATCC 25922,32 µg/mL
same,MIC 50%,[3],16 µg/mL
same,MIC 99%,[3],32 µg/mL
same,MIC 99%,C. albicans,>64 µg/mL
same,reduction of mammosphere formation,MCF7 cells [4],~90%
CN1CCN(C2CCN(Cc3cc(C(C)(C)C)ccc3OCc3ccccc3)CCC2O)CC1 (centres unmarked) [24/F9],MIC 50%,MRSA ATCC 43300; MRSA ATCC 43300,64 µg/mL
same,MIC 99%,MRSA ATCC 43300; MRSA ATCC 43300,>64 µg/mL
same,MIC 50%,P. auriginosa ATCC 27853,>32 µg/mL
same,MIC 99%,P. auriginosa ATCC 27853,>64 µg/mL
same,effect on glycolysis,MCF7 cells [1],suppressed glycolysis
same,inhibition of mitochondrial oxygen-consumption,MCF7 cells [1],dose-dependently inhibited
same,rank order potency to reduce maximal respiration and ATP production,MCF7 cells [1],top 6
same,MIC 50%,[2]; MSSA ATCC 25923 (Table 4),32 µg/mL
same,MIC 99%,[2]; MSSA ATCC 25923 (Table 4),64 µg/mL
same,MIC 50%,[2]; [5],32 µg/mL
same,MIC 99%,[2]; [5],64 µg/mL
same,MIC 50%,K. pneumoniae ATCC 13883,32 µg/mL
same,MIC 99%,K. pneumoniae ATCC 13883,64 µg/mL
same,MIC 50%,E. coli ATCC 25922,32 µg/mL
same,MIC 99%,E. coli ATCC 25922,64 µg/mL
same,MIC 50%,[3],32 µg/mL
same,MIC 99%,[3],64 µg/mL
same,MIC 99%,C. albicans,>64 µg/mL
same,reduction of mammosphere formation,MCF7 cells [4],~90%
CN1CCCN(C2CCN(Cc3cc(Cl)ccc3OCc3ccccc3)CCC2O)CC1 (centres unmarked) [24/H6],rank order potency to reduce maximal respiration and ATP production,MCF7 cells [1],top 6
CN(C)C1CC2(CCN(Cc3cc(Cl)ccc3OCc3ccccc3)CC2)OCC1(C)O (centres unmarked) [24/H9],rank order potency to reduce maximal respiration and ATP production,MCF7 cells [1],top 6
CN(C)Cc1cccc(C2CCCN2Cc2ccccc2OCc2cccc(F)c2)n1 (centres unmarked) [25/B3],rank order potency to reduce maximal respiration and ATP production,MCF7 cells [1],top 6
"CC1(C)S[C@@H]2[C@H](NC(=O)[C@H](N)c3ccc(O)cc3)C(=O)N2[C@H]1C(=O)O [AMOXICILLIN, reference compound]",sensitivity of MRSA,MRSA ATCC 43300,resistant
same,MIC50,MRSA ATCC 43300; [6],> 64 µg/mL
same,MIC99,MRSA ATCC 43300; [6],> 64 µg/mL
same,MIC50,P. auriginosa ATCC 27853,128 µg/mL
same,MIC99,P. auriginosa ATCC 27853,256 µg/mL
same,MIC 50%,[2]; MSSA ATCC 25923 (Table 4),4 µg/mL
same,MIC 99%,[2]; MSSA ATCC 25923 (Table 4),8 µg/mL
same,MIC50,[2]; [5],4 µg/mL
same,MIC99,[2]; [5],8 µg/mL
same,MIC50,K. pneumoniae ATCC 13883,32 µg/mL
same,MIC99,K. pneumoniae ATCC 13883,> 64 µg/mL
same,MIC50,E. coli ATCC 25922,16 µg/mL
same,MIC99,E. coli ATCC 25922,> 32 µg/mL
same,MIC50,[3],4 µg/mL
same,MIC99,[3],8 µg/mL
"C[C@H]1c2cccc(O)c2C(=O)C2=C(O)[C@]3(O)C(=O)C(C(N)=O)=C(O)[C@@H](N(C)C)[C@@H]3[C@@H](O)[C@@H]21 [DOXYCYCLINE, reference compound]",MIC50,P. auriginosa ATCC 27853,1 µg/mL
same,MIC99,P. auriginosa ATCC 27853,2 µg/mL
same,MIC50,[2]; [5],0.5 µg/mL
same,MIC99,[2]; [5],1 µg/mL
same,MIC50,K. pneumoniae ATCC 13883,2 µg/mL
same,MIC99,K. pneumoniae ATCC 13883,4 µg/mL
same,MIC50,E. coli ATCC 25922,0.5 µg/mL
same,MIC99,E. coli ATCC 25922,2 µg/mL
same,MIC50,[3],0.5 µg/mL
same,MIC99,[3],1 µg/mL
same,MIC99,"C. albicans; Candida albicans, ATCC13883",> 64 µg/mL
"CC(=O)NC[C@H]1CN(c2ccc(N3CCOCC3)c(F)c2)C(=O)O1 [LINEZOLID, reference compound]",MIC50,P. auriginosa ATCC 27853,64 µg/mL
same,MIC99,P. auriginosa ATCC 27853,256 µg/mL
same,MIC50,[2]; [5],1 µg/mL
same,MIC99,[2]; [5],2 µg/mL
same,MIC50,K. pneumoniae ATCC 13883,128 µg/mL
same,MIC99,K. pneumoniae ATCC 13883,256 µg/mL
same,MIC50,E. coli ATCC 25922,128 µg/mL
same,MIC99,E. coli ATCC 25922,> 128 µg/mL
same,MIC50,[3],1 µg/mL
same,MIC99,[3],2 µg/mL
"Clc1ccc(COC(Cn2ccnc2)c2ccc(Cl)cc2Cl)c(Cl)c1 (centres unmarked) [MICONAZOLE, reference compound]",MIC50,"C. albicans; Candida albicans, ATCC13883",0.5 µg/mL
same,MIC99,"C. albicans; Candida albicans, ATCC13883",1 µg/mL
